Among the data in ChEMBL document CHEMBL3784915, “Design and synthesis of novel benzo[d]oxazol-2(3H)-one derivatives bearing 7-substituted-4-enthoxyquinoline moieties as c-Met kinase inhibitors” (Eur J Med Chem, 2016) are IC50 values, retold here.

SMILES strings stand for the structures.

As usually defined, the IC50 is the midpoint of a concentration-inhibition curve.

Tested on in the first assay: not listed separately
Put plainly: cells. Particulars: Homo sapiens, EBC-1, 72 h.
Description: Cytotoxicity against human EBC1 cells assessed as inhibition of cell proliferation after 72 hrs by sulforhodamine B assay
Take `CN1CCN(CCCOC(=O)Nc2cccc(Cn3nc(-n4ccc5ccc(F)cc54)ccc3=O)c2)CC1`: the IC50 stood at 672 nM.
Still for that read-out and setting: the same measure for `COC(=O)c1ccc2c(c1)oc(=O)n2CCOc1ccnc2cc(OC)ccc12`: above 500 nM.
Still for that read-out and setting: the same measure for `COc1ccc2c(OCCn3c(=O)oc4cc(N)ccc43)ccnc2c1`: 160 nM.
The compound `Cc1ccc2c(c1)oc(=O)n2CCOc1ccnc2cc(OCCCN3CCN(C)CC3)ccc12` had an IC50 of 170 nM.
`Cc1ccc2c(c1)oc(=O)n2CCOc1ccnc2cc(OCCCCN3CCOCC3)ccc12` yielded an IC50 of 330 nM.
For the compound `COCCOc1ccc2c(OCCn3c(=O)oc4cc(C)ccc43)ccnc2c1`, the IC50 was above 500 nM.
`COc1ccc2c(OCCn3c(=O)oc4cc(F)ccc43)ccnc2c1` registered an IC50 above 500 nM.
`Cc1ccc2c(c1)oc(=O)n2CCOc1ccnc2cc(NCCCN3CCOCC3)ccc12` returned an IC50 of 58 nM.
Compound `Cc1ccc2c(c1)oc(=O)n2CCOc1ccnc2cc(OCCCN3CCCC3)ccc12` displayed an IC50 above 500 nM.
As to `COc1ccc2c(OCCn3c(=O)oc4ccc(C)cc43)ccnc2c1`, the 50% inhibitory concentration (IC50) is above 500 nM.
With `Cc1ccc2c(c1)oc(=O)n2CCOc1ccnc2cc(OCCN3CCOCC3)ccc12`, the IC50 came out at 120 nM.
For the compound `COc1ccc2c(OCCn3c(=O)oc4ccc(-c5cnn(C)c5)cc43)ccnc2c1`, the IC50 was above 500 nM.
In turn, `COC(=O)c1ccc2oc(=O)n(CCOc3ccnc4cc(OC)ccc34)c2c1` yielded an IC50 above 500 nM.
Same read-out and setting: the same measure for `Cn1cc(-c2ccc3c(OCCn4c(=O)oc5cc(-c6cnn(C)c6)ccc54)ccnc3c2)cn1`: 5 nM.
`COc1ccc2c(OCCn3c(=O)oc4cc(C)ccc43)ccnc2c1` gave an IC50 above 500 nM.
Same read-out and setting: the same measure for `COc1ccc2c(OCCn3c(=O)oc4cc(N5CCOCC5)ccc43)ccnc2c1`: above 500 nM; for `COc1ccc2c(OCCn3c(=O)oc4ccc(F)cc43)ccnc2c1`: above 500 nM; for `COc1ccc2c(OCCn3c(=O)oc4cc(-c5cnn(C)c5)ccc43)ccnc2c1`: 100 nM.
In turn, `COc1ccc2c(OCCn3c(=O)oc4cc(OC)ccc43)ccnc2c1` had an IC50 above 500 nM.
Regarding `Cc1ccc2c(c1)oc(=O)n2CCOc1ccnc2cc(OCCCN3CCOCC3)ccc12`, the IC50 was found to be 170 nM.
In turn, `Cc1ccc2c(c1)oc(=O)n2Cc1cccc(NC(=O)OCCCN2CCOCC2)c1` showed an IC50 of 1600 nM.
`Cc1ccc2c(c1)oc(=O)n2CCOc1ccnc2cc(-c3cnn(C)c3)ccc12` registered an IC50 of 35 nM.
Take `C[C@@H](Oc1cc(-c2cnn(C3CCNCC3)c2)cnc1N)c1c(Cl)ccc(F)c1Cl` [CRIZOTINIB]: the IC50 was 44 nM.

The target of a further assay is Hepatocyte growth factor receptor (Homo sapiens, UniProt P08581). Put plainly: Inhibition of N-terminal 6His-tagged human recombinant c-MET expressed in baculovirus infected Sf21 cells using poly Ala-Glu-Lys-Tyr (6:2:5:1) as substrate after 3 hrs by scintillation counting in presence of [33P]-ATP.
Chain of Hepatocyte growth factor receptor (P08581 whole entry): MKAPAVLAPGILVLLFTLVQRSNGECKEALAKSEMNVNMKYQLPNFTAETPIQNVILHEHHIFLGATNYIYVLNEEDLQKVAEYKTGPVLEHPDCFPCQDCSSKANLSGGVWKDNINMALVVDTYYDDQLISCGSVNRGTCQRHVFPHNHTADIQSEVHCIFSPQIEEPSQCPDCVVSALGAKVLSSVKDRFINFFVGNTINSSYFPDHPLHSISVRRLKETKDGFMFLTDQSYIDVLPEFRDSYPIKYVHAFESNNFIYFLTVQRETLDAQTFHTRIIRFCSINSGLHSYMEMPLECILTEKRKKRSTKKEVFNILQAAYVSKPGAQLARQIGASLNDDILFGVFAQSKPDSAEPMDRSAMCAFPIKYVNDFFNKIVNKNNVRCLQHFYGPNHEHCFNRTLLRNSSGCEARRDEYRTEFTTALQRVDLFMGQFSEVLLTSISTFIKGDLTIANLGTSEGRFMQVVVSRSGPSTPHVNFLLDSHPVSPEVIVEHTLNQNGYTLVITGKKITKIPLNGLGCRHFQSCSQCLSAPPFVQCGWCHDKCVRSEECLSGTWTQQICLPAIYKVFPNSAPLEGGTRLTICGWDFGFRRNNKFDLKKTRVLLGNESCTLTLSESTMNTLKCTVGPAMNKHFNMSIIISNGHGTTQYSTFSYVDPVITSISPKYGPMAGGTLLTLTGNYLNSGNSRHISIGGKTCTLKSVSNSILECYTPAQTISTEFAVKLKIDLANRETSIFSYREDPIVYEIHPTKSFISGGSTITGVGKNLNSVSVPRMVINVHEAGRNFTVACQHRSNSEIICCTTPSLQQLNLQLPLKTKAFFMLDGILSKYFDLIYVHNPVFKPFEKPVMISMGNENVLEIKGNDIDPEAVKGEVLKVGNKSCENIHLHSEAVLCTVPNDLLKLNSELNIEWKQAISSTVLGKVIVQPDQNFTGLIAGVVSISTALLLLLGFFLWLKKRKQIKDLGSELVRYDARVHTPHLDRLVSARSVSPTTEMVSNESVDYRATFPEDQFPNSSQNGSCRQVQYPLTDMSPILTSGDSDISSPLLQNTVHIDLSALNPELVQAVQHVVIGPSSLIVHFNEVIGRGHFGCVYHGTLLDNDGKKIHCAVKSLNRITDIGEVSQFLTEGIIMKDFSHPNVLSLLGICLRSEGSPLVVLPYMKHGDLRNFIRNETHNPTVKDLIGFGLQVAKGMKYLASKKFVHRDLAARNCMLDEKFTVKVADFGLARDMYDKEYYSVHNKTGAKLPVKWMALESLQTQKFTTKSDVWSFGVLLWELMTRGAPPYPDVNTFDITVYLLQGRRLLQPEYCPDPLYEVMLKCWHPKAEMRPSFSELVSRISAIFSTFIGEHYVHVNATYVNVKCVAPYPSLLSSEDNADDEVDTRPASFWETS
Conditions: not given
For the compound `Cc1ccc2c(c1)oc(=O)n2Cc1cccc(NC(=O)OCCCN2CCOCC2)c1`, the IC50 came to 1600 nM.
